Measured values reported in patent US12077503B2, “Substituted cyclic amides and their use as herbicides” (FMC CORPORATION, priority 2015, dated 2024).

Experiments:
Format in all cases: in vivo
[1] = tested on: giant foxtail (Setaria faberi); test: Test G Post-Emergence Protocol; conditions: Setaria faberi, post-emergence, 312 h, read-out: Foxtail, Giant damage rating; for pest or weed control at 15.625 g/ha: 15.625 g ai/ha, evaluated after 13 days (100=total damage to plant; 0=no damage to plant); for pest or weed control at 62.5 g/ha: 62.5 g ai/ha; for pest or weed control at 62.5 g/ha / pest or weed control at 250 g/ha: evaluated after 13 days, 100=total damage to plant, 0=no damage to plant; for pest or weed control at 250 g/ha: 250 g ai/ha
How it was run: (§1)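 Values are percent visual injury at 13 days after treatment (0 none, 100 total). Treatment was a post-emergence spray at 15.625, 62.5 or 250 g/ha on 8-day-old pot plants kept at 24/16 °C.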

[2] = tested on: redroot pigweed (Amaranthus retroflexus); test: Test G Post-Emergence Protocol; conditions: Amaranthus retroflexus, post-emergence, 312 h, read-out: Pigweed, Redroot damage rating; for pest or weed control at 15.625 g/ha: 15.625 g ai/ha, evaluated after 13 days (100=total damage to plant; 0=no damage to plant); for pest or weed control at 62.5 g/ha: 62.5 g ai/ha; for pest or weed control at 62.5 g/ha / pest or weed control at 250 g/ha: evaluated after 13 days, 100=total damage to plant, 0=no damage to plant; for pest or weed control at 250 g/ha: 250 g ai/ha
How it was run: as §1

corn (Zea mays) [3] = test: Test G Post-Emergence Protocol; conditions: Zea mays, post-emergence, 312 h, read-out: Corn damage rating; for plant injury at 15.625 g/ha: 15.625 g ai/ha, evaluated after 13 days (100=total damage to plant; 0=no damage to plant); for plant injury at 62.5 g/ha: 62.5 g ai/ha; for plant injury at 62.5 g/ha / plant injury at 250 g/ha: evaluated after 13 days, 100=total damage to plant, 0=no damage to plant; for plant injury at 250 g/ha: 250 g ai/ha
How it was run: as §1

[4] = tested on: velvetleaf (Abutilon theophrasti); test: Test G Post-Emergence Protocol; conditions: Abutilon theophrasti, post-emergence, 312 h, read-out: Velvetleaf damage rating; for pest or weed control at 15.625 g/ha: 15.625 g ai/ha, evaluated after 13 days (100=total damage to plant; 0=no damage to plant); for pest or weed control at 62.5 g/ha: 62.5 g ai/ha; for pest or weed control at 62.5 g/ha / pest or weed control at 250 g/ha: evaluated after 13 days, 100=total damage to plant, 0=no damage to plant; for pest or weed control at 250 g/ha: 250 g ai/ha
How it was run: as §1

[5] = tested on: ivy-leaved morning glory (Ipomoea hederacea); test: Test G Post-Emergence Protocol; conditions: Ipomoea, post-emergence, 312 h, read-out: Morningglory, Ivy-leaved damage rating; for pest or weed control at 15.625 g/ha: 15.625 g ai/ha, evaluated after 13 days (100=total damage to plant; 0=no damage to plant); for pest or weed control at 62.5 g/ha: 62.5 g ai/ha; for pest or weed control at 62.5 g/ha / pest or weed control at 250 g/ha: evaluated after 13 days, 100=total damage to plant, 0=no damage to plant; for pest or weed control at 250 g/ha: 250 g ai/ha
How it was run: as §1

[6] = tested on: barnyardgrass (Echinochloa crus-galli); test: Test G Post-Emergence Protocol; conditions: Echinochloa crus-galli, post-emergence, 312 h, read-out: Barnyardgrass damage rating; for pest or weed control at 15.625 g/ha: 15.625 g ai/ha, evaluated after 13 days (100=total damage to plant; 0=no damage to plant); for pest or weed control at 62.5 g/ha: 62.5 g ai/ha; for pest or weed control at 62.5 g/ha / pest or weed control at 250 g/ha: evaluated after 13 days, 100=total damage to plant, 0=no damage to plant; for pest or weed control at 250 g/ha: 250 g ai/ha
How it was run: as §1

[7] = tested on: giant foxtail (Setaria faberi); test: Test G Pre-Emergence Protocol; conditions: Setaria faberi, pre-emergence, 312 h, evaluated after 13 days; for pest or weed control at 15.625 g/ha: 15.625 g ai/ha; for pest or weed control at 15.625 g/ha / pest or weed control at 250 g/ha: read-out: Foxtail, Giant damage rating (100=total damage to plant; 0=no damage to plant); for pest or weed control at 62.5 g/ha: 62.5 g ai/ha, 100=total damage to plant, 0=no damage to plant, read-out: Foxtail, Giant damage rating; for pest or weed control at 250 g/ha: 250 g ai/ha
How it was run: (§2)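 Under a 24/16° C day/night regime with 14 h light and 65% humidity, sown pots were sprayed after one day with compound (15.625, 62.5 or 250 g/ha; 50:50 acetone/water, 0.5% Tween 20). Damage was assessed visually 13 days later, 0 to 100.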

[8] = tested on: redroot pigweed (Amaranthus retroflexus); test: Test G Pre-Emergence Protocol; conditions: Amaranthus retroflexus, pre-emergence, 312 h, evaluated after 13 days; for pest or weed control at 15.625 g/ha: 15.625 g ai/ha; for pest or weed control at 15.625 g/ha / pest or weed control at 250 g/ha: read-out: Pigweed, Redroot damage rating (100=total damage to plant; 0=no damage to plant); for pest or weed control at 62.5 g/ha: 62.5 g ai/ha, 100=total damage to plant, 0=no damage to plant, read-out: Pigweed, Redroot damage rating; for pest or weed control at 250 g/ha: 250 g ai/ha
How it was run: as §2

corn (Zea mays) [9] = test: Test G Pre-Emergence Protocol; conditions: Zea mays, pre-emergence, 312 h, evaluated after 13 days; for plant injury at 15.625 g/ha: 15.625 g ai/ha; for plant injury at 15.625 g/ha / plant injury at 250 g/ha: read-out: Corn damage rating (100=total damage to plant; 0=no damage to plant); for plant injury at 62.5 g/ha: 62.5 g ai/ha, 100=total damage to plant, 0=no damage to plant, read-out: Corn damage rating; for plant injury at 250 g/ha: 250 g ai/ha
How it was run: as §2

[10] = tested on: velvetleaf (Abutilon theophrasti); test: Test G Pre-Emergence Protocol; conditions: Abutilon theophrasti, pre-emergence, 312 h, evaluated after 13 days; for pest or weed control at 15.625 g/ha: 15.625 g ai/ha; for pest or weed control at 15.625 g/ha / pest or weed control at 250 g/ha: read-out: Velvetleaf damage rating (100=total damage to plant; 0=no damage to plant); for pest or weed control at 62.5 g/ha: 62.5 g ai/ha, 100=total damage to plant, 0=no damage to plant, read-out: Velvetleaf damage rating; for pest or weed control at 250 g/ha: 250 g ai/ha
How it was run: as §2

[11] = tested on: ivy-leaved morning glory (Ipomoea hederacea); test: Test G Pre-Emergence Protocol; conditions: Ipomoea, pre-emergence, 312 h, evaluated after 13 days; for pest or weed control at 15.625 g/ha: 15.625 g ai/ha; for pest or weed control at 15.625 g/ha / pest or weed control at 250 g/ha: read-out: Morningglory, Ivy-leaved damage rating (100=total damage to plant; 0=no damage to plant); for pest or weed control at 62.5 g/ha: 62.5 g ai/ha, 100=total damage to plant, 0=no damage to plant, read-out: Morningglory, Ivy-leaved damage rating; for pest or weed control at 250 g/ha: 250 g ai/ha
How it was run: as §2

[12] = tested on: barnyardgrass (Echinochloa crus-galli); test: Test G Pre-Emergence Protocol; conditions: Echinochloa crus-galli, pre-emergence, 312 h, evaluated after 13 days; for pest or weed control at 15.625 g/ha: 15.625 g ai/ha; for pest or weed control at 15.625 g/ha / pest or weed control at 250 g/ha: read-out: Barnyardgrass damage rating (100=total damage to plant; 0=no damage to plant); for pest or weed control at 62.5 g/ha: 62.5 g ai/ha, 100=total damage to plant, 0=no damage to plant, read-out: Barnyardgrass damage rating; for pest or weed control at 250 g/ha: 250 g ai/ha
How it was run: as §2

SMILES	pest or weed control at 15.625 g/ha [1] [%]	pest or weed control at 62.5 g/ha [1] [%]	pest or weed control at 250 g/ha [1] [%]	pest or weed control at 15.625 g/ha [2] [%]	pest or weed control at 62.5 g/ha [2] [%]	pest or weed control at 250 g/ha [2] [%]	plant injury at 15.625 g/ha (corn (Zea mays) [3]) [%]	plant injury at 62.5 g/ha (corn (Zea mays) [3]) [%]	plant injury at 250 g/ha (corn (Zea mays) [3]) [%]	pest or weed control at 15.625 g/ha [4] [%]	pest or weed control at 62.5 g/ha [4] [%]	pest or weed control at 250 g/ha [4] [%]	pest or weed control at 15.625 g/ha [5] [%]	pest or weed control at 62.5 g/ha [5] [%]	pest or weed control at 250 g/ha [5] [%]	pest or weed control at 15.625 g/ha [6] [%]	pest or weed control at 62.5 g/ha [6] [%]	pest or weed control at 250 g/ha [6] [%]	pest or weed control at 15.625 g/ha [7] [%]	pest or weed control at 62.5 g/ha [7] [%]	other results
CN1C[C@H](c2ccc(C(F)(F)F)cc2)[C@@H](C(=O)Nc2cccc(F)c2S(C)(=O)=O)C1=O (racemic) [Compound 1680]	30	80	80	50	60	60	0	0	0	0	10	0	10	10	20	20	20	50	20	60	pest or weed control at 250 g/ha [7]: 90%; pest or weed control at 15.625 g/ha [8]: 20%; pest or weed control at 62.5 g/ha [8]: 20%; pest or weed control at 250 g/ha [8]: 70%; plant injury at 15.625 g/ha (corn (Zea mays) [9]): 0%; plant injury at 62.5 g/ha (corn (Zea mays) [9]): 0%; plant injury at 250 g/ha (corn (Zea mays) [9]): 0%; pest or weed control at 15.625 g/ha [10]: 10%; pest or weed control at 62.5 g/ha [10]: 10%; pest or weed control at 250 g/ha [10]: 90%; pest or weed control at 15.625 g/ha [11]: 0%; pest or weed control at 62.5 g/ha [11]: 0%; pest or weed control at 250 g/ha [11]: 0%; pest or weed control at 15.625 g/ha [12]: 0%; pest or weed control at 62.5 g/ha [12]: 20%; pest or weed control at 250 g/ha [12]: 60%
CN1C[C@H](c2cccc(C(F)(F)F)c2)[C@@H](C(=O)Nc2cccc(O)c2F)C1=O (racemic) [Compound 1806]	0	60	60	0	0	0	0	0	40	0	0	0	0	0	0	0	20	50	20	20	pest or weed control at 250 g/ha [7]: 30%; pest or weed control at 15.625 g/ha [8]: 0%; pest or weed control at 62.5 g/ha [8]: 0%; pest or weed control at 250 g/ha [8]: 10%; plant injury at 15.625 g/ha (corn (Zea mays) [9]): 0%; plant injury at 62.5 g/ha (corn (Zea mays) [9]): 0%; plant injury at 250 g/ha (corn (Zea mays) [9]): 0%; pest or weed control at 15.625 g/ha [10]: 0%; pest or weed control at 62.5 g/ha [10]: 0%; pest or weed control at 250 g/ha [10]: 0%; pest or weed control at 15.625 g/ha [11]: 0%; pest or weed control at 62.5 g/ha [11]: 0%; pest or weed control at 250 g/ha [11]: 0%; pest or weed control at 15.625 g/ha [12]: 0%; pest or weed control at 62.5 g/ha [12]: 10%; pest or weed control at 250 g/ha [12]: 20%
